Data: patent US10597388B2, “Pyridazinone herbicides” (FMC CORPORATION, priority 2014, dated 2020)

What was measured:
Type in all cases: in vivo
[1] = tested on: dayflower (Virginia (VA) dayflower, Commelina virginica); assay: Test E greenhouse herbicide test, pre- and postemergence
Outline: (§1)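 Herbicidal effect was judged by eye relative to untreated plants 14 to 21 d after spraying, using 0 for no effect and 100 for complete control. Preemergence sprays went onto freshly seeded silt loam; postemergence sprays onto 2–18 cm seedlings.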

[2] = tested on: crabgrass, Brazilian (Brazilian crabgrass, Digitaria horizontalis); assay: as above
Outline: as §1

[3] = tested on: sandbur (southem sandbur, Cenchrus echinatus); assay: as above
Outline: as §1

[4] = tested on: panicum, fall (fall panicum, Panicum dichotomiflorum); assay: as above
Outline: as §1

soybean (Glycine max) = assay: as above
Outline: as §1

corn (Zea mays) = assay: as above
Outline: as §1

[5] = tested on: pigweed, palmer (palmer pigweed, Amaranthus palmeri); assay: as above
Outline: as §1

[6] = tested on: foxtail, giant (giant foxtail, Setaria faberii); assay: as above; conditions: Preemergence
Outline: as §1

kochia (Kochia scoparia) = assay: as above
Outline: as §1

[7] = tested on: velvetleaf (Abutilon theophrasti); assay: as above; conditions: Preemergence
Outline: as §1

[8] = tested on: crabgrass, large (large crabgrass, Digitaria sanguinalis); assay: as above; conditions: Preemergence
Outline: as §1

[9] = tested on: nutsedge, yellow (yellow nutsedge, Cyperus esculentus); assay: as above; conditions: Preemergence
Outline: as §1

[10] = tested on: lambsquarters (Chenopodium album); assay: as above; conditions: Preemergence
Outline: as §1

[11] = tested on: foxtail, green (green foxtail, Setaria viridis); assay: as above; conditions: Preemergence
Outline: as §1

[12] = tested on: johnsongrass (Sorghum halepense); assay: as above; conditions: Preemergence
Outline: as §1

[13] = tested on: waterhemp_RES1 (ALS & Triazine resistant common waterhemp, Amaranthus rudis); assay: Test E greenhouse herbicide test, postemergence
Outline: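 Values are visual ratings from 0 (no effect) to 100 (complete control), scored relative to untreated controls 14 to 21 d after treatment. Plants were 1- to 4-leaf seedlings (2 to 18 cm) in potting medium and received postemergence applications of formulated test chemicals.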

[14] = 62 g ai/ha, Postemergence, scale 0 to 100 (0 no effect, 100 complete control)
[15] = 62 g ai/ha, Preemergence, scale 0 to 100 (0 no effect, 100 complete control)
[16] = 125 g ai/ha, Postemergence, scale 0 to 100 (0 no effect, 100 complete control)
[17] = 250 g ai/ha, Postemergence, scale 0 to 100 (0 no effect, 100 complete control)
[18] = Postemergence, 31 g ai/ha, visual, scale 0 no effect to 100 complete control
[19] = Preemergence, 31 g ai/ha, scale 0 to 100, 0 no effect, 100 complete control
[20] = Preemergence, 125 g ai/ha, visual, scale 0 no effect to 100 complete control
[21] = Preemergence, 250 g ai/ha, visual, scale 0 no effect to 100 complete control
[22] = 125 g ai/ha, Preemergence, scale 0 to 100 (0 no effect, 100 complete control)
[23] = 62 g ai/ha, scale 0 to 100 (0 no effect, 100 complete control)
[24] = 31 g ai/ha, scale 0 to 100, 0 no effect, 100 complete control
[25] = 125 g ai/ha, visual, scale 0 no effect to 100 complete control
[26] = 250 g ai/ha, visual, scale 0 no effect to 100 complete control
[27] = 125 g ai/ha, scale 0 to 100 (0 no effect, 100 complete control)

CCc1sc2c(C)cc(C)cc2c1-c1c(O)c(C)nn(C)c1=O [Compound 57]
60: Plant response rating, Sandbur [3, 14] | Plant response rating, Panicum, Fall [4, 14] | Plant response rating, Pigweed, Palmer [5, 17] | Plant response rating, Pigweed, Palmer [5, 21] | Plant response rating, Kochia (kochia (Kochia scoparia); [16]) | Plant response rating, Nutsedge, Yellow [9, 27] | Plant response rating, Waterhemp_RES1 ([13]; 250 g ai/ha, scale 0 to 100 (0 no effect, 100 complete control))
50: Plant response rating, Sandbur [3, 18] | Plant response rating, Kochia (kochia (Kochia scoparia); [18]) | Plant response rating, Waterhemp_RES1 [13, 23]
35: Plant response rating, Dayflower, VA [1, 16] | Plant response rating, Pigweed, Palmer [5, 15] | Plant response rating, Pigweed, Palmer [5, 19] | Plant response rating, Foxtail, Giant [6, 23] | Plant response rating, Johnsongrass [12, 26]
0: Plant response rating, Dayflower, VA [1, 19] | Plant response rating, Crabgrass, Brazil [2, 15] | Plant response rating, Crabgrass, Brazil [2, 19] | Plant response rating, Sandbur [3, 15] | Plant response rating, Sandbur [3, 19] | Plant response rating, Soybean (soybean (Glycine max); [14]) | Plant response rating, Soybean (soybean (Glycine max); [15]) | Plant response rating, Soybean (soybean (Glycine max); [22]) | Plant response rating, Soybean (soybean (Glycine max); [19]) | Plant response rating, Corn (corn (Zea mays); [15]) | Plant response rating, Corn (corn (Zea mays); [19]) | Plant response rating, Corn (corn (Zea mays); [20]) | Plant response rating, Corn (corn (Zea mays); [21]) | Plant response rating, Crabgrass, Large [8, 23] | Plant response rating, Crabgrass, Large [8, 24] | Plant response rating, Crabgrass, Large [8, 25] | Plant response rating, Crabgrass, Large [8, 26] | Plant response rating, Nutsedge, Yellow [9, 24] | Plant response rating, Foxtail, Green [11, 24] | Plant response rating, Johnsongrass [12, 24]
95: Plant response rating, Panicum, Fall [4, 19] | Plant response rating, Foxtail, Giant [6, 25] | Plant response rating, Foxtail, Giant [6, 26] | Plant response rating, Velvetleaf [7, 27]
100: Plant response rating, Panicum, Fall [4, 22] | Plant response rating, Panicum, Fall [4, 21] | Plant response rating, Kochia (kochia (Kochia scoparia); [21]) | Plant response rating, Velvetleaf [7, 26] | Plant response rating, Lambsquarters [10, 23] | Plant response rating, Lambsquarters [10, 24] | Plant response rating, Lambsquarters [10, 25] | Plant response rating, Lambsquarters [10, 26] | Plant response rating, Foxtail, Green [11, 26]
10: Plant response rating, Dayflower, VA [1, 18] | Plant response rating, Soybean (soybean (Glycine max); [17]) | Plant response rating, Soybean (soybean (Glycine max); [18]) | Plant response rating, Corn (corn (Zea mays); [14]) | Plant response rating, Pigweed, Palmer [5, 18]
30: Plant response rating, Dayflower, VA [1, 17] | Plant response rating, Dayflower, VA [1, 20] | Plant response rating, Crabgrass, Brazil [2, 17] | Plant response rating, Sandbur [3, 22] | Plant response rating, Pigweed, Palmer [5, 16] | Plant response rating, Velvetleaf [7, 24] | Plant response rating, Nutsedge, Yellow [9, 23] | Plant response rating, Johnsongrass [12, 23] | Plant response rating, Johnsongrass [12, 25]
25: Plant response rating, Dayflower, VA [1, 15]
75: Plant response rating, Kochia (kochia (Kochia scoparia); [17]) | Plant response rating, Kochia (kochia (Kochia scoparia); [20])
90: Plant response rating, Foxtail, Green [11, 25]
70: Plant response rating, Crabgrass, Brazil [2, 21] | Plant response rating, Sandbur [3, 17] | Plant response rating, Panicum, Fall [4, 16] | Plant response rating, Kochia (kochia (Kochia scoparia); [14]) | Plant response rating, Nutsedge, Yellow [9, 26]
80: Plant response rating, Dayflower, VA [1, 21] | Plant response rating, Sandbur [3, 21] | Plant response rating, Panicum, Fall [4, 17]
98: Plant response rating, Panicum, Fall [4, 15]
65: Plant response rating, Sandbur [3, 16] | Plant response rating, Kochia (kochia (Kochia scoparia); [15]) | Plant response rating, Velvetleaf [7, 23]
40: Plant response rating, Crabgrass, Brazil [2, 20] | Plant response rating, Panicum, Fall [4, 18] | Plant response rating, Pigweed, Palmer [5, 22] | Plant response rating, Waterhemp_RES1 ([13]; 31 g ai/ha, visual, scale 0 no effect to 100 complete control) | Plant response rating, Waterhemp_RES1 [13, 27]
5: Plant response rating, Foxtail, Giant [6, 24]
20: Plant response rating, Crabgrass, Brazil [2, 14] | Plant response rating, Crabgrass, Brazil [2, 16] | Plant response rating, Soybean (soybean (Glycine max); [21]) | Plant response rating, Pigweed, Palmer [5, 14] | Plant response rating, Kochia (kochia (Kochia scoparia); [19]) | Plant response rating, Foxtail, Green [11, 23]
15: Plant response rating, Dayflower, VA [1, 14] | Plant response rating, Crabgrass, Brazil [2, 18] | Plant response rating, Soybean (soybean (Glycine max); [16]) | Plant response rating, Corn (corn (Zea mays); [16]) | Plant response rating, Corn (corn (Zea mays); [17]) | Plant response rating, Corn (corn (Zea mays); [18])
